From patent US5494907A, “11-β substituted-19-nor steroids” (Roussel UCLAF, priority 1993, dated 1996) come the findings set out here.

The test addresses T1, AR (androgen receptor of the prostate of a rat) (Rattus norvegicus, UniProt P15207).
T1 construct: using either the natural hormonal receptor of a rat (AR); from tissue; host or cells: prostate of castrated male Sprague Dawley rats, high-speed supernatant
T1 sequence (P15207 1-902): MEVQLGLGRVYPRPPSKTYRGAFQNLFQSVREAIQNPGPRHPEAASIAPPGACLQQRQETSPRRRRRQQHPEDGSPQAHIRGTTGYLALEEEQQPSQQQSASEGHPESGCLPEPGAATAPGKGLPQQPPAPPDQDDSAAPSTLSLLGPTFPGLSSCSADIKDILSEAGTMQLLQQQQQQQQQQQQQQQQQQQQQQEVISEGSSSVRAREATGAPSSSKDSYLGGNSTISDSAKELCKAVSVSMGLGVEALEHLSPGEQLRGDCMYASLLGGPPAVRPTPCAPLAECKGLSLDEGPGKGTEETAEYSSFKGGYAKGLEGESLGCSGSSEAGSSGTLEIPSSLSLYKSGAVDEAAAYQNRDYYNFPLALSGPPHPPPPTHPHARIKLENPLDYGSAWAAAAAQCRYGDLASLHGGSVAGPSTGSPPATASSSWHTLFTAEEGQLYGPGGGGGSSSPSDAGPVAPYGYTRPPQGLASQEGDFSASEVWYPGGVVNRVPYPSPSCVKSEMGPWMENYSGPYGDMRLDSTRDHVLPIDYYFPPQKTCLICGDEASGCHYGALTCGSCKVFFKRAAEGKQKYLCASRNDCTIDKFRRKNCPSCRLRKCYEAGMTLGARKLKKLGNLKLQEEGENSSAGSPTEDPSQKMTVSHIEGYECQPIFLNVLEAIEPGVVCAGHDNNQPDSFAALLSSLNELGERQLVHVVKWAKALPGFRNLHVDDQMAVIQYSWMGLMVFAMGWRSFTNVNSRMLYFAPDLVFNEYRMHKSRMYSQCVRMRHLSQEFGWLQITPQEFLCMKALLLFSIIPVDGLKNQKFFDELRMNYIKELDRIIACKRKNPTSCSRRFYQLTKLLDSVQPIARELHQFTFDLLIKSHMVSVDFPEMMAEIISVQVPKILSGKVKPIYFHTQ
In words: Relative bond affinity (RBA) on androgen receptor of the prostate of a rat, displacement of tritiated testosterone. Type of test: binding. To be noted: Testosterone = 100; 0° C., 24 hours. As for the experimental part:
1--Activity on the hormonal receptors using either the natural hormonal receptor of a rat (AR), or the recombinant human receptor (PR, GR and ER).
Androgen receptor of the prostate of a rat
Male Sprague Dawley EOPS rats weighing 180 to 200 g were castrated and 24 hours after the castration, the animals were sacrificed. The prostates were removed, weighed and homogenized at 0° C. using a Potter teflon-glass in a TS buffered solution (10 mM Tris, 0.25 M saccharose, 2 mMDTT, 20 mM MoNa, 0.1 mM PMSF, pH 7.4) (1 g of tissue per 8 ml of TS). The homogenate was centrifuged (209,000 g for 30 minutes) at 0° C. Aliquots of the supernatant were incubated at 0° C. for 24 hours with a constant concentration (T) of tritiated testosterone in the presence of increasing concentrations, either of unlabelled testosterone (0 to 1000×10^-9 M), or of the product under test (1 to 25000×10^-9 M). The concentration of bound tritiated testosterone (B) was measured in each incubate by the technique of adsorption with carbon dextran.
Calculation of the relative bond affinity (RBA).
The following 2 curves were traced: percentage of bound tritiated hormone B/BO as a function of the logarithm of the concentration of unlabelled reference hormone or as a function of the logarithm of the concentration of the unlabelled product under test.
The straight line of the following equation was determined:
BO=Concentration of bound tritiated hormone in the absence of any unlabelled product,
B=Concentration of bound tritiated hormone in the presence of a concentration X of unlabelled product,
B min=Concentration of bound tritiated hormone in the presence of a large excess of cold reference hormone (500 nM). The intersections of the straight line I50 and the curves allowed the evaluation of the concentrations of unlabelled reference hormone (CH) and of the unlabelled product under test (CX) which inhibited by 50% the specific binding of the tritiated hormone on the receptor.
The relative bond affinity (RBA) of the product under test was determined by the equation: […]

As for `CCCCN(C)S(=O)(=O)CCCCCOc1ccc([C@H]2C[C@]3(C)[C@@H](O)CC[C@H]3[C@@H]3CCc4cc(O)ccc4[C@H]32)cc1` [Example 7, N-butyl-5-[4-(Δ1,3,5(10)-estratrien-3,17β-diol-11β-yl)phenoxy]-N-methyl-pentanesulfonamide], the “RBA AR” value is 2.5.

As for `CN(CC(F)(F)C(F)(F)C(F)(F)F)S(=O)(=O)CCCCCOc1ccc([C@H]2C[C@]3(C)[C@@H](O)CC[C@H]3[C@@H]3CCc4cc(O)ccc4[C@H]32)cc1` [Example 8, 5-[4-(Δ1,3,5(10)-estratrien-3,17β-diol-11βyl)-Phenoxy]-N-(2,2,3,3,4,4,4-heptafluorobutyl)-N-methyl-pentanesulfonamide], the “RBA AR” value is given as 1.5.

As to `CCCCNS(=O)(=O)CCCCCOc1ccc([C@H]2C[C@]3(C)[C@@H](O)CC[C@H]3[C@@H]3CCc4cc(O)ccc4[C@H]32)cc1` [Example 2, N-butyl-5-[4-(Δ1,3,5(10)-estratrien-3,17β-diol-11β-yl)phenoxy]-pentanesulfonamide], the “RBA AR” value worked out at 3.
